From PubChem BioAssay (NCI)
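Growth conditions: 96-well plates. Treatment: test compound, 48 hours, 5 concentrations. Analysis: linear interpolation between bracketing concentrations; unreached endpoints set to highest concentration. TGI marks complete inhibition of growth.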

Assays:
Assay in all cases: DTP human tumour cell line panel, 48 h
HOP-92 NSCLC = system: HOP-92 NSCLC
HCC-2998 colon = system: HCC-2998 colon
KM12 colon = system: KM12 colon
SK-OV-3 ovarian = system: SK-OV-3 ovarian
OVCAR-5 ovarian = system: OVCAR-5 ovarian
LOX IMVI melanoma = system: LOX IMVI melanoma
SF-295 CNS = system: SF-295 CNS
U251 CNS = system: U251 CNS
T-47D breast = system: T-47D breast
MDA-MB-435 = system: MDA-MB-435
NCI-H460 lung = system: NCI-H460 lung
OVCAR-3 ovarian = system: OVCAR-3 ovarian
UACC-257 melanoma = system: UACC-257 melanoma
COLO 205 colon = system: COLO 205 colon
HCT-15 colon = system: HCT-15 colon
PC-3 prostate = system: PC-3 prostate
CAKI-1 renal = system: CAKI-1 renal
ACHN renal = system: ACHN renal
A549 NSCLC = system: A549 NSCLC
HT29 colon = system: HT29 colon
NCI/ADR-RES ovarian = system: NCI/ADR-RES ovarian
SF-539 CNS = system: SF-539 CNS
SN12C renal = system: SN12C renal
UACC-62 melanoma = system: UACC-62 melanoma
HCT-116 colon = system: HCT-116 colon
IGROV1 ovarian = system: IGROV1 ovarian
CCRF-CEM leukemia = system: CCRF-CEM leukemia
HL-60(TB) leukemia = system: HL-60(TB) leukemia
NCI-H23 lung = system: NCI-H23 lung
A498 renal = system: A498 renal
MOLT-4 leukemia = system: MOLT-4 leukemia
UO-31 renal = system: UO-31 renal
NCI-H226 lung = system: NCI-H226 lung
RXF 393 renal = system: RXF 393 renal
HOP-62 NSCLC = system: HOP-62 NSCLC
MCF7 breast = system: MCF7 breast
HS 578T breast = system: HS 578T breast
NCI-H522 lung = system: NCI-H522 lung
SW-620 colon = system: SW-620 colon
MALME-3M melanoma = system: MALME-3M melanoma
K-562 leukemia = system: K-562 leukemia
SF-268 CNS = system: SF-268 CNS
EKVX NSCLC = system: EKVX NSCLC
SR leukemia = system: SR leukemia
OVCAR-8 ovarian = system: OVCAR-8 ovarian
786-0 renal = system: 786-0 renal
SK-MEL-28 melanoma = system: SK-MEL-28 melanoma
DU-145 prostate = system: DU-145 prostate
SNB-75 CNS = system: SNB-75 CNS
SNB-19 CNS = system: SNB-19 CNS
OVCAR-4 ovarian = system: OVCAR-4 ovarian
TK-10 renal = system: TK-10 renal
MDA-N = system: MDA-N
MDA-MB-231 breast = system: MDA-MB-231 breast
M14 melanoma = system: M14 melanoma
SK-MEL-5 melanoma = system: SK-MEL-5 melanoma
RPMI-8226 leukemia = system: RPMI-8226 leukemia

O=C(CCC(C(=O)OCc1ccccc1)C(=O)OCc1ccccc1)Nc1ccc(OCc2ccccc2)cc1
TGI (HOP-92 NSCLC): > 100 µM
TGI (HCC-2998 colon): > 100 µM
TGI (KM12 colon): > 100 µM
TGI (SK-OV-3 ovarian): > 100 µM
TGI (OVCAR-5 ovarian): > 100 µM
TGI (LOX IMVI melanoma): > 100 µM
TGI (SF-295 CNS): > 100 µM
TGI (U251 CNS): > 100 µM
TGI (T-47D breast): > 100 µM
TGI (MDA-MB-435): > 100 µM
TGI (NCI-H460 lung): > 100 µM
TGI (OVCAR-3 ovarian): > 100 µM
TGI (UACC-257 melanoma): > 100 µM
TGI (COLO 205 colon): > 100 µM
TGI (HCT-15 colon): 79.4 µM
TGI (PC-3 prostate): 47.2 µM
TGI (CAKI-1 renal): > 100 µM
TGI (ACHN renal): > 100 µM
TGI (A549 NSCLC): > 100 µM
TGI (HT29 colon): > 100 µM
TGI (NCI/ADR-RES ovarian): > 100 µM
TGI (SF-539 CNS): > 100 µM
TGI (SN12C renal): > 100 µM
TGI (UACC-62 melanoma): > 100 µM
TGI (HCT-116 colon): 27.3 µM
TGI (IGROV1 ovarian): > 100 µM
TGI (CCRF-CEM leukemia): > 100 µM
TGI (HL-60(TB) leukemia): > 100 µM
TGI (NCI-H23 lung): > 100 µM
TGI (A498 renal): > 100 µM
TGI (MOLT-4 leukemia): > 100 µM
TGI (UO-31 renal): > 100 µM
TGI (NCI-H226 lung): > 100 µM
TGI (RXF 393 renal): > 100 µM
TGI (HOP-62 NSCLC): > 100 µM
TGI (MCF7 breast): 32.8 µM
TGI (HS 578T breast): > 100 µM
TGI (NCI-H522 lung): > 100 µM
TGI (SW-620 colon): > 100 µM
TGI (MALME-3M melanoma): > 100 µM
TGI (K-562 leukemia): > 100 µM
TGI (SF-268 CNS): > 100 µM
TGI (EKVX NSCLC): > 100 µM
TGI (SR leukemia): > 100 µM
TGI (OVCAR-8 ovarian): 34 µM
TGI (786-0 renal): 32.2 µM
TGI (SK-MEL-28 melanoma): > 100 µM
TGI (DU-145 prostate): > 100 µM
TGI (SNB-75 CNS): > 100 µM
TGI (SNB-19 CNS): > 100 µM
TGI (OVCAR-4 ovarian): > 100 µM
TGI (TK-10 renal): > 100 µM
TGI (MDA-N): > 100 µM
TGI (MDA-MB-231 breast): > 100 µM
TGI (M14 melanoma): > 100 µM

COC(=O)Cc1cccc2c1CCC2=O
TGI (HOP-92 NSCLC): > 100 µM
TGI (HCC-2998 colon): > 100 µM
TGI (KM12 colon): > 100 µM
TGI (SK-OV-3 ovarian): > 100 µM
TGI (OVCAR-5 ovarian): > 100 µM
TGI (LOX IMVI melanoma): > 100 µM
TGI (SK-MEL-5 melanoma): > 100 µM
TGI (SF-295 CNS): > 100 µM
TGI (U251 CNS): > 100 µM
TGI (T-47D breast): > 100 µM
TGI (MDA-MB-435): > 100 µM
TGI (NCI-H460 lung): > 100 µM
TGI (OVCAR-3 ovarian): > 100 µM
TGI (UACC-257 melanoma): > 100 µM
TGI (COLO 205 colon): > 100 µM
TGI (HCT-15 colon): > 100 µM
TGI (PC-3 prostate): > 100 µM
TGI (ACHN renal): > 100 µM
TGI (A549 NSCLC): > 100 µM
TGI (HT29 colon): > 100 µM
TGI (NCI/ADR-RES ovarian): > 100 µM
TGI (SF-539 CNS): > 100 µM
TGI (SN12C renal): > 100 µM
TGI (UACC-62 melanoma): > 100 µM
TGI (HCT-116 colon): > 100 µM
TGI (IGROV1 ovarian): > 100 µM
TGI (CCRF-CEM leukemia): > 100 µM
TGI (HL-60(TB) leukemia): > 100 µM
TGI (NCI-H23 lung): > 100 µM
TGI (A498 renal): > 100 µM
TGI (MOLT-4 leukemia): > 100 µM
TGI (UO-31 renal): > 100 µM
TGI (NCI-H226 lung): > 100 µM
TGI (RXF 393 renal): > 100 µM
TGI (HOP-62 NSCLC): > 100 µM
TGI (MCF7 breast): > 100 µM
TGI (HS 578T breast): > 100 µM
TGI (NCI-H522 lung): > 100 µM
TGI (SW-620 colon): > 100 µM
TGI (MALME-3M melanoma): > 100 µM
TGI (K-562 leukemia): > 100 µM
TGI (SF-268 CNS): > 100 µM
TGI (EKVX NSCLC): > 100 µM
TGI (SR leukemia): > 100 µM
TGI (OVCAR-8 ovarian): > 100 µM
TGI (786-0 renal): > 100 µM
TGI (RPMI-8226 leukemia): > 100 µM
TGI (SK-MEL-28 melanoma): > 100 µM
TGI (DU-145 prostate): > 100 µM
TGI (SNB-75 CNS): > 100 µM
TGI (SNB-19 CNS): > 100 µM
TGI (OVCAR-4 ovarian): > 100 µM
TGI (TK-10 renal): > 100 µM
TGI (MDA-N): > 100 µM
TGI (MDA-MB-231 breast): > 100 µM
TGI (M14 melanoma): > 100 µM

Nc1c(Br)cc2c(c1Br)Cc1cc(Br)ccc1-2
TGI (HOP-92 NSCLC): > 100 µM
TGI (HCC-2998 colon): > 100 µM
TGI (KM12 colon): > 100 µM
TGI (SK-OV-3 ovarian): > 100 µM
TGI (LOX IMVI melanoma): > 100 µM
TGI (SK-MEL-5 melanoma): > 100 µM
TGI (SF-295 CNS): > 100 µM
TGI (U251 CNS): > 100 µM
TGI (T-47D breast): > 100 µM
TGI (MDA-MB-435): > 100 µM
TGI (NCI-H460 lung): > 100 µM
TGI (OVCAR-3 ovarian): > 100 µM
TGI (UACC-257 melanoma): > 100 µM
TGI (COLO 205 colon): > 100 µM
TGI (HCT-15 colon): > 100 µM
TGI (PC-3 prostate): > 100 µM
TGI (ACHN renal): > 100 µM
TGI (A549 NSCLC): > 100 µM
TGI (HT29 colon): > 100 µM
TGI (NCI/ADR-RES ovarian): > 100 µM
TGI (SN12C renal): > 100 µM
TGI (HCT-116 colon): > 100 µM
TGI (CCRF-CEM leukemia): > 100 µM
TGI (NCI-H23 lung): > 100 µM
TGI (A498 renal): > 100 µM
TGI (MOLT-4 leukemia): > 100 µM
TGI (UO-31 renal): > 100 µM
TGI (NCI-H226 lung): > 100 µM
TGI (RXF 393 renal): > 100 µM
TGI (MCF7 breast): > 100 µM
TGI (HS 578T breast): > 100 µM
TGI (NCI-H522 lung): > 100 µM
TGI (SW-620 colon): > 100 µM
TGI (K-562 leukemia): > 100 µM
TGI (SF-268 CNS): > 100 µM
TGI (SR leukemia): > 100 µM
TGI (OVCAR-8 ovarian): > 100 µM
TGI (SK-MEL-28 melanoma): > 100 µM
TGI (DU-145 prostate): > 100 µM
TGI (SNB-75 CNS): > 100 µM
TGI (SNB-19 CNS): > 100 µM
TGI (OVCAR-4 ovarian): > 100 µM
TGI (TK-10 renal): > 100 µM
TGI (MDA-N): > 100 µM
TGI (MDA-MB-231 breast): > 100 µM
TGI (M14 melanoma): > 100 µM
